Test results published in ChEMBL document CHEMBL1150968, “Debromosceptrin, an alkaloid from the Caribbean sponge Agelas conifera” (1998).
Active and inactive are the calls of the source. The calls are words filed in the database; no cut-off is given here.

Columns and labels:
[1] = system: Human immunodeficiency virus; assay: Antiviral activity against HIV; format: functional, organism-based
[2] = system: Mycobacterium tuberculosis; assay: Antimycobacterial activity against Mycobacterium tuberculosis at 12.5 ug/ml; format: functional

Row | Compound | Activity [1] | Activity [2]
1 | Nc1nc([C@H]2[C@H](CNC(=O)c3cc(Br)c[nH]3)[C@@H](CNC(=O)c3cc(Br)c[nH]3)[C@@H]2c2c[nH]c(N)n2)c[nH]1 | inactive | 
2 | Nc1ncc([C@H]2[C@H](CNC(=O)c3ccc[nH]3)[C@@H](CNC(=O)c3ccc[nH]3)[C@@H]2c2cnc(N)[nH]2)[nH]1 | inactive | 
3 | Nc1nc([C@H]2[C@H](CNC(=O)c3ccc[nH]3)[C@@H](CNC(=O)c3cc(Br)c[nH]3)[C@@H]2c2c[nH]c(N)n2)c[nH]1 | inactive | 
4 | Cl.Cl.Nc1ncc([C@H]2[C@H](CNC(=O)c3cc(Br)c[nH]3)[C@@H](CNC(=O)c3cc(Br)c[nH]3)[C@@H]2c2cnc(N)[nH]2)[nH]1 [SCEPTRIN HYDROCHLORIDE] |  | 14%
5 | Cl.Cl.Nc1ncc([C@H]2[C@H](CNC(=O)c3ccc[nH]3)[C@@H](CNC(=O)c3cc(Br)c[nH]3)[C@@H]2c2cnc(N)[nH]2)[nH]1 [MONOBROMOSCEPTRIN] |  | 35%
